Results on six compounds are retold here after patent US20200172491A1, “SUBSTITUTED 5-(HET-)ARYLPYRAZOLAMIDES AND SALTS THEREOF AND THEIR USE AS HERBICIDAL ACTIVE SUBSTANCES” (Bayer CropScience Aktiengesellschaft, priority 2017, published 2020).

One test concerns Matricaria inodora. As to the kind of experiment: Post-emergence herbicidal action. Format: in vivo. As to conditions: 320 g/ha, rated after about 3 weeks, 100% = plants have died, 0% = like control plants. How it is done: (§1) Seeds of monocotyledonous and dicotyledonous weeds and crop plants were placed in sandy loam in plastic or wood-fiber pots, covered with soil and cultivated in a greenhouse under controlled growth conditions. 2 to 3 weeks after sowing, the test plants were treated at the one-leaf stage. The compounds of the invention, formulated in the form of wettable powders (WP) or as emulsion concentrates (EC), were then sprayed onto the green parts of the plants as aqueous suspension or emulsion with addition of 0.5% additive at a water application rate of 600 l/ha (converted). After the test plants had been kept in the greenhouse under optimum growth conditions for about 3 weeks, the activity of the preparations was rated visually in comparison to untreated controls. For example, 100% activity=the plants have died, 0% activity=like control plants. Tables B1 to B6 below show the effects of selected compounds of the general formula (I) according to Table A1 at an application rate of 320 g/ha on various harmful plants, which were obtained by the aforementioned experimental procedure.
With `Cc1nn(C)c(-c2ccc(F)cc2Cl)c1C(=O)Nc1cccc(Cl)c1` [I-001], the “herbicidal activity on Matricaria inodora (visual rating vs untreated controls)” value is given as 90%.

As to `Cc1ccc(Cl)cc1NC(=O)c1c(C)nn(C)c1-c1ccc(F)cc1Cl` [I-009], the “herbicidal activity on Matricaria inodora (visual rating vs untreated controls)” value stood at 100%.

Take `Cc1nn(C)c(-c2ccc(F)cc2Cl)c1C(=O)Nc1c(Cl)cccc1Cl` [I-013]: the “herbicidal activity on Matricaria inodora (visual rating vs untreated controls)” value amounted to 100%.

As for `Cc1ccccc1NC(=O)c1c(C)nn(C)c1-c1ccc(F)cc1Cl` [I-016], the “herbicidal activity on Matricaria inodora (visual rating vs untreated controls)” value is 100%.

On to `Cc1nn(C)c(-c2ccc(F)cc2Cl)c1C(=O)Nc1cccc(F)c1` [I-027], for which the “herbicidal activity on Matricaria inodora (visual rating vs untreated controls)” value worked out at 100%.

For `Cc1cccc(Cl)c1NC(=O)c1c(C)nn(C)c1-c1ccc(F)cc1Cl` [I-028], the “herbicidal activity on Matricaria inodora (visual rating vs untreated controls)” value stood at 100%.

The next test relates to Amaranthus retroflexus. Description: Post-emergence herbicidal action. It is filed as in vivo. As to conditions: 320 g/ha, rated after about 3 weeks, 100% = plants have died, 0% = like control plants. The protocol: as §1
With `Cc1nn(C)c(-c2ccc(F)cc2Cl)c1C(=O)Nc1cccc(Cl)c1` [I-001], the “herbicidal activity on Amaranthus retroflexus (visual rating vs untreated controls)” value is 100%.

With `Cc1ccc(Cl)cc1NC(=O)c1c(C)nn(C)c1-c1ccc(F)cc1Cl` [I-009], the “herbicidal activity on Amaranthus retroflexus (visual rating vs untreated controls)” value is listed as 100%.

For the compound `Cc1nn(C)c(-c2ccc(F)cc2Cl)c1C(=O)Nc1c(Cl)cccc1Cl` [I-013], the “herbicidal activity on Amaranthus retroflexus (visual rating vs untreated controls)” value came to 100%.

For the compound `Cc1ccccc1NC(=O)c1c(C)nn(C)c1-c1ccc(F)cc1Cl` [I-016], the “herbicidal activity on Amaranthus retroflexus (visual rating vs untreated controls)” value amounted to 100%.

With `Cc1nn(C)c(-c2ccc(F)cc2Cl)c1C(=O)Nc1cccc(F)c1` [I-027], the “herbicidal activity on Amaranthus retroflexus (visual rating vs untreated controls)” value worked out at 100%.

Turning to `Cc1cccc(Cl)c1NC(=O)c1c(C)nn(C)c1-c1ccc(F)cc1Cl` [I-028], the “herbicidal activity on Amaranthus retroflexus (visual rating vs untreated controls)” value turned out to be 100%.

Another test relates to Ipomoea purpurea. As to the kind of experiment: Post-emergence herbicidal action. It is filed as in vivo. As to conditions: 320 g/ha, rated after about 3 weeks, 100% = plants have died, 0% = like control plants. How it is done: as §1
On to `Cc1nn(C)c(-c2ccc(F)cc2Cl)c1C(=O)Nc1cccc(Cl)c1` [I-001], for which the “herbicidal activity on Ipomoea purpurea (visual rating vs untreated controls)” value was 100%.

On to `Cc1ccc(Cl)cc1NC(=O)c1c(C)nn(C)c1-c1ccc(F)cc1Cl` [I-009], for which the “herbicidal activity on Ipomoea purpurea (visual rating vs untreated controls)” value is given as 100%.

With `Cc1nn(C)c(-c2ccc(F)cc2Cl)c1C(=O)Nc1c(Cl)cccc1Cl` [I-013], the “herbicidal activity on Ipomoea purpurea (visual rating vs untreated controls)” value was 100%.

On to `Cc1ccccc1NC(=O)c1c(C)nn(C)c1-c1ccc(F)cc1Cl` [I-016], for which the “herbicidal activity on Ipomoea purpurea (visual rating vs untreated controls)” value was determined as 100%.

Turning to `Cc1nn(C)c(-c2ccc(F)cc2Cl)c1C(=O)Nc1cccc(F)c1` [I-027], the “herbicidal activity on Ipomoea purpurea (visual rating vs untreated controls)” value is recorded as 100%.

Consider `Cc1cccc(Cl)c1NC(=O)c1c(C)nn(C)c1-c1ccc(F)cc1Cl` [I-028], for which the “herbicidal activity on Ipomoea purpurea (visual rating vs untreated controls)” value amounted to 100%.

The test system of the next test is Stellaria media. As to the kind of experiment: Post-emergence herbicidal action. Format: in vivo. As to conditions: 320 g/ha, rated after about 3 weeks, 100% = plants have died, 0% = like control plants. How it is done: as §1
Take `Cc1nn(C)c(-c2ccc(F)cc2Cl)c1C(=O)Nc1cccc(Cl)c1` [I-001]: the “herbicidal activity on Stellaria media (visual rating vs untreated controls)” value came to 100%.

Regarding `Cc1ccc(Cl)cc1NC(=O)c1c(C)nn(C)c1-c1ccc(F)cc1Cl` [I-009], the “herbicidal activity on Stellaria media (visual rating vs untreated controls)” value was 100%.

Regarding `Cc1nn(C)c(-c2ccc(F)cc2Cl)c1C(=O)Nc1c(Cl)cccc1Cl` [I-013], the “herbicidal activity on Stellaria media (visual rating vs untreated controls)” value is recorded as 100%.

Turning to `Cc1ccccc1NC(=O)c1c(C)nn(C)c1-c1ccc(F)cc1Cl` [I-016], the “herbicidal activity on Stellaria media (visual rating vs untreated controls)” value was found to be 100%.

As to `Cc1nn(C)c(-c2ccc(F)cc2Cl)c1C(=O)Nc1cccc(F)c1` [I-027], the “herbicidal activity on Stellaria media (visual rating vs untreated controls)” value is listed as 100%.

With `Cc1cccc(Cl)c1NC(=O)c1c(C)nn(C)c1-c1ccc(F)cc1Cl` [I-028], the “herbicidal activity on Stellaria media (visual rating vs untreated controls)” value worked out at 100%.

The test system of another test is Viola tricolor. As to the kind of experiment: Post-emergence herbicidal action. Format: in vivo. As to conditions: 320 g/ha, rated after about 3 weeks, 100% = plants have died, 0% = like control plants. How it is done: as §1
Take `Cc1nn(C)c(-c2ccc(F)cc2Cl)c1C(=O)Nc1cccc(Cl)c1` [I-001]: the “herbicidal activity on Viola tricolor (visual rating vs untreated controls)” value stood at 100%.

For the compound `Cc1ccc(Cl)cc1NC(=O)c1c(C)nn(C)c1-c1ccc(F)cc1Cl` [I-009], the “herbicidal activity on Viola tricolor (visual rating vs untreated controls)” value was 100%.

For `Cc1nn(C)c(-c2ccc(F)cc2Cl)c1C(=O)Nc1c(Cl)cccc1Cl` [I-013], the “herbicidal activity on Viola tricolor (visual rating vs untreated controls)” value stood at 100%.

As for `Cc1ccccc1NC(=O)c1c(C)nn(C)c1-c1ccc(F)cc1Cl` [I-016], the “herbicidal activity on Viola tricolor (visual rating vs untreated controls)” value is recorded as 100%.

For `Cc1nn(C)c(-c2ccc(F)cc2Cl)c1C(=O)Nc1cccc(F)c1` [I-027], the “herbicidal activity on Viola tricolor (visual rating vs untreated controls)” value is on record as 100%.

For the compound `Cc1cccc(Cl)c1NC(=O)c1c(C)nn(C)c1-c1ccc(F)cc1Cl` [I-028], the “herbicidal activity on Viola tricolor (visual rating vs untreated controls)” value amounted to 100%.

Another test relates to Matricaria inodora. As to the kind of experiment: Pre-emergence herbicidal action. As to conditions: 320 g/ha, scored after about 3 weeks, 100% = plants have died, 0% = like control plants. It is filed as in vivo. An excerpt: (§2) Seeds of monocotyledonous and dicotyledonous weed plants and crop plants were placed in plastic or wood-fiber pots and covered with soil. The compounds of the invention, formulated in the form of wettable powders (WP) or as emulsion concentrates (EC), were then applied to the surface of the covering soil as aqueous suspension or emulsion with addition of 0.5% additive at a water application rate equivalent to 600 l/ha. After the treatment, the pots were placed in a greenhouse and kept under good growth conditions for the test plants. After about 3 weeks, the effect of the preparations is scored visually in comparison with untreated controls as percentages. For example, 100% activity=the plants have died, 0% activity=like control plants. Tables B7 to B11 below show the effects of selected compounds of the general formula (I) according to Table A1 at an application rate of 320 g/ha on various harmful plants, which were obtained by the aforementioned experimental procedure.
Consider `Cc1nn(C)c(-c2ccc(F)cc2Cl)c1C(=O)Nc1cccc(Cl)c1` [I-001], for which the “herbicidal activity on Matricaria inodora (visual rating vs untreated controls)” value came out at 100%.

Consider `Cc1ccc(Cl)cc1NC(=O)c1c(C)nn(C)c1-c1ccc(F)cc1Cl` [I-009], for which the “herbicidal activity on Matricaria inodora (visual rating vs untreated controls)” value is 100%.

As to `Cc1nn(C)c(-c2ccc(F)cc2Cl)c1C(=O)Nc1c(Cl)cccc1Cl` [I-013], the “herbicidal activity on Matricaria inodora (visual rating vs untreated controls)” value worked out at 100%.

For `Cc1ccccc1NC(=O)c1c(C)nn(C)c1-c1ccc(F)cc1Cl` [I-016], the “herbicidal activity on Matricaria inodora (visual rating vs untreated controls)” value was 100%.

As to `Cc1nn(C)c(-c2ccc(F)cc2Cl)c1C(=O)Nc1cccc(F)c1` [I-027], the “herbicidal activity on Matricaria inodora (visual rating vs untreated controls)” value is listed as 100%.

As for `Cc1cccc(Cl)c1NC(=O)c1c(C)nn(C)c1-c1ccc(F)cc1Cl` [I-028], the “herbicidal activity on Matricaria inodora (visual rating vs untreated controls)” value is 100%.

The next test concerns Amaranthus retroflexus. As to the kind of experiment: Pre-emergence herbicidal action. Format: in vivo. The settings on record: 320 g/ha, scored after about 3 weeks, 100% = plants have died, 0% = like control plants.
Description: as §2
As to `Cc1nn(C)c(-c2ccc(F)cc2Cl)c1C(=O)Nc1cccc(Cl)c1` [I-001], the “herbicidal activity on Amaranthus retroflexus (visual rating vs untreated controls)” value was 100%.

Regarding `Cc1ccc(Cl)cc1NC(=O)c1c(C)nn(C)c1-c1ccc(F)cc1Cl` [I-009], the “herbicidal activity on Amaranthus retroflexus (visual rating vs untreated controls)” value was found to be 100%.

For `Cc1nn(C)c(-c2ccc(F)cc2Cl)c1C(=O)Nc1c(Cl)cccc1Cl` [I-013], the “herbicidal activity on Amaranthus retroflexus (visual rating vs untreated controls)” value is 100%.

With `Cc1ccccc1NC(=O)c1c(C)nn(C)c1-c1ccc(F)cc1Cl` [I-016], the “herbicidal activity on Amaranthus retroflexus (visual rating vs untreated controls)” value was found to be 100%.

On to `Cc1nn(C)c(-c2ccc(F)cc2Cl)c1C(=O)Nc1cccc(F)c1` [I-027], for which the “herbicidal activity on Amaranthus retroflexus (visual rating vs untreated controls)” value is on record as 100%.

As to `Cc1cccc(Cl)c1NC(=O)c1c(C)nn(C)c1-c1ccc(F)cc1Cl` [I-028], the “herbicidal activity on Amaranthus retroflexus (visual rating vs untreated controls)” value worked out at 100%.

Another test concerns Stellaria media. Description: Pre-emergence herbicidal action. Format: in vivo. As to conditions: 320 g/ha, scored after about 3 weeks, 100% = plants have died, 0% = like control plants.
Description: as §2
In the case of `Cc1nn(C)c(-c2ccc(F)cc2Cl)c1C(=O)Nc1cccc(Cl)c1` [I-001], the “herbicidal activity on Stellaria media (visual rating vs untreated controls)” value was 100%.

As for `Cc1ccc(Cl)cc1NC(=O)c1c(C)nn(C)c1-c1ccc(F)cc1Cl` [I-009], the “herbicidal activity on Stellaria media (visual rating vs untreated controls)” value was 100%.

`Cc1nn(C)c(-c2ccc(F)cc2Cl)c1C(=O)Nc1c(Cl)cccc1Cl` [I-013]: the “herbicidal activity on Stellaria media (visual rating vs untreated controls)” value is 100%.

With `Cc1ccccc1NC(=O)c1c(C)nn(C)c1-c1ccc(F)cc1Cl` [I-016], the “herbicidal activity on Stellaria media (visual rating vs untreated controls)” value worked out at 100%.

In the case of `Cc1nn(C)c(-c2ccc(F)cc2Cl)c1C(=O)Nc1cccc(F)c1` [I-027], the “herbicidal activity on Stellaria media (visual rating vs untreated controls)” value is reported as 100%.

For `Cc1cccc(Cl)c1NC(=O)c1c(C)nn(C)c1-c1ccc(F)cc1Cl` [I-028], the “herbicidal activity on Stellaria media (visual rating vs untreated controls)” value is listed as 100%.

The test system of another test is Veronica persica. Description: Pre-emergence herbicidal action. Format: in vivo. The settings on record: 320 g/ha, scored after about 3 weeks, 100% = plants have died, 0% = like control plants.
Description: as §2
As for `Cc1nn(C)c(-c2ccc(F)cc2Cl)c1C(=O)Nc1cccc(Cl)c1` [I-001], the “herbicidal activity on Veronica persica (visual rating vs untreated controls)” value turned out to be 100%.

Take `Cc1ccc(Cl)cc1NC(=O)c1c(C)nn(C)c1-c1ccc(F)cc1Cl` [I-009]: the “herbicidal activity on Veronica persica (visual rating vs untreated controls)” value is 100%.

Turning to `Cc1nn(C)c(-c2ccc(F)cc2Cl)c1C(=O)Nc1c(Cl)cccc1Cl` [I-013], the “herbicidal activity on Veronica persica (visual rating vs untreated controls)” value turned out to be 100%.

On to `Cc1ccccc1NC(=O)c1c(C)nn(C)c1-c1ccc(F)cc1Cl` [I-016], for which the “herbicidal activity on Veronica persica (visual rating vs untreated controls)” value came out at 80%.

For `Cc1nn(C)c(-c2ccc(F)cc2Cl)c1C(=O)Nc1cccc(F)c1` [I-027], the “herbicidal activity on Veronica persica (visual rating vs untreated controls)” value is recorded as 100%.

Take `Cc1cccc(Cl)c1NC(=O)c1c(C)nn(C)c1-c1ccc(F)cc1Cl` [I-028]: the “herbicidal activity on Veronica persica (visual rating vs untreated controls)” value is given as 100%.
